According to the NIST ThermoML archive (doi:10.1021/je3011979):
Numbers after ± are expanded uncertainties.

Columns and labels:
[1] = excess molar enthalpy (molar enthalpy of mixing); xn = mol fraction of the nth substance listed; settings: 291.15 K, 101 kPa, Liquid, Calvet calorimetry
[2] = xn = mol fraction of the nth substance listed; settings: 101 kPa, Liquid, Vibrating tube method

CCCOC(C)=O [propyl ethanoate] + CCCCCCCCC
excess molar enthalpy ([1]; x1 = 0.1167): 0.142 ± 0.00167 kcal/mol
excess molar enthalpy ([1]; x1 = 0.2247): 0.2261 ± 0.00215 kcal/mol
excess molar enthalpy ([1]; x1 = 0.3093): 0.2789 ± 0.00239 kcal/mol
excess molar enthalpy ([1]; x1 = 0.379): 0.3102 ± 0.00263 kcal/mol
excess molar enthalpy ([1]; x1 = 0.4448): 0.325 ± 0.00263 kcal/mol
excess molar enthalpy ([1]; x1 = 0.5009): 0.3305 ± 0.00287 kcal/mol
excess molar enthalpy ([1]; x1 = 0.5447): 0.3277 ± 0.00263 kcal/mol
excess molar enthalpy ([1]; x1 = 0.5617): 0.3248 ± 0.00263 kcal/mol
excess molar enthalpy ([1]; x1 = 0.6139): 0.3136 ± 0.00263 kcal/mol
excess molar enthalpy ([1]; x1 = 0.6683): 0.2921 ± 0.00239 kcal/mol
excess molar enthalpy ([1]; x1 = 0.7299): 0.2593 ± 0.00239 kcal/mol
excess molar enthalpy ([1]; x1 = 0.7964): 0.215 ± 0.00215 kcal/mol
excess molar enthalpy ([1]; x1 = 0.8649): 0.155 ± 0.00191 kcal/mol
excess molar enthalpy ([1]; x1 = 0.9356): 0.0848 ± 0.00167 kcal/mol
mass density ([2]; 291.15 K, x1 = 0.0569): 724.6 ± 0.3 kg/m3
mass density ([2]; 291.15 K, x1 = 0.1163): 730.7 ± 0.3 kg/m3
mass density ([2]; 291.15 K, x1 = 0.1916): 739 ± 0.3 kg/m3
mass density ([2]; 291.15 K, x1 = 0.282): 750 ± 0.3 kg/m3
mass density ([2]; 291.15 K, x1 = 0.3583): 760 ± 0.3 kg/m3
mass density ([2]; 291.15 K, x1 = 0.4338): 770.9 ± 0.3 kg/m3
mass density ([2]; 291.15 K, x1 = 0.4846): 778.7 ± 0.3 kg/m3
mass density ([2]; 291.15 K, x1 = 0.5686): 792.4 ± 0.3 kg/m3
mass density ([2]; 291.15 K, x1 = 0.6289): 803.2 ± 0.3 kg/m3
mass density ([2]; 291.15 K, x1 = 0.6876): 814.4 ± 0.3 kg/m3
mass density ([2]; 291.15 K, x1 = 0.7441): 826 ± 0.3 kg/m3
mass density ([2]; 291.15 K, x1 = 0.7948): 837.1 ± 0.3 kg/m3
mass density ([2]; 291.15 K, x1 = 0.8162): 841.9 ± 0.3 kg/m3
mass density ([2]; 291.15 K, x1 = 0.8844): 858.5 ± 0.3 kg/m3
mass density ([2]; 291.15 K, x1 = 0.9349): 871.7 ± 0.4 kg/m3
mass density ([2]; 291.15 K, x1 = 0.9464): 874.9 ± 0.4 kg/m3
mass density ([2]; 291.15 K, x1 = 1): 889.6 ± 0.2 kg/m3
mass density ([2]; 298.15 K, x1 = 0.0361): 717.2 ± 0.3 kg/m3
mass density ([2]; 298.15 K, x1 = 0.0384): 717.4 ± 0.3 kg/m3
mass density ([2]; 298.15 K, x1 = 0.1106): 724.5 ± 0.3 kg/m3
mass density ([2]; 298.15 K, x1 = 0.2023): 734.5 ± 0.3 kg/m3
mass density ([2]; 298.15 K, x1 = 0.2833): 744.2 ± 0.3 kg/m3
mass density ([2]; 298.15 K, x1 = 0.3636): 754.6 ± 0.3 kg/m3
mass density ([2]; 298.15 K, x1 = 0.4312): 764.2 ± 0.3 kg/m3
mass density ([2]; 298.15 K, x1 = 0.5061): 775.6 ± 0.3 kg/m3
mass density ([2]; 298.15 K, x1 = 0.5653): 785.3 ± 0.3 kg/m3
mass density ([2]; 298.15 K, x1 = 0.6308): 796.9 ± 0.3 kg/m3
mass density ([2]; 298.15 K, x1 = 0.6728): 804.8 ± 0.3 kg/m3
mass density ([2]; 298.15 K, x1 = 0.7321): 816.5 ± 0.3 kg/m3
mass density ([2]; 298.15 K, x1 = 0.7908): 829 ± 0.3 kg/m3
mass density ([2]; 298.15 K, x1 = 0.8257): 836.9 ± 0.3 kg/m3
mass density ([2]; 298.15 K, x1 = 0.8918): 852.8 ± 0.3 kg/m3
mass density ([2]; 298.15 K, x1 = 0.9404): 865.6 ± 0.4 kg/m3
mass density ([2]; 298.15 K, x1 = 1): 882.5 ± 0.2 kg/m3
mass density ([2]; 318.15 K, x1 = 0.0217): 700 ± 0.3 kg/m3
mass density ([2]; 318.15 K, x1 = 0.1046): 707.7 ± 0.3 kg/m3
mass density ([2]; 318.15 K, x1 = 0.1791): 715.4 ± 0.3 kg/m3
mass density ([2]; 318.15 K, x1 = 0.2659): 725 ± 0.3 kg/m3
mass density ([2]; 318.15 K, x1 = 0.335): 733.4 ± 0.3 kg/m3
mass density ([2]; 318.15 K, x1 = 0.4077): 742.9 ± 0.3 kg/m3
mass density ([2]; 318.15 K, x1 = 0.4731): 752.1 ± 0.3 kg/m3
mass density ([2]; 318.15 K, x1 = 0.5367): 761.7 ± 0.3 kg/m3
mass density ([2]; 318.15 K, x1 = 0.5943): 771 ± 0.3 kg/m3
mass density ([2]; 318.15 K, x1 = 0.6526): 781.2 ± 0.3 kg/m3
mass density ([2]; 318.15 K, x1 = 0.7078): 791.4 ± 0.3 kg/m3
mass density ([2]; 318.15 K, x1 = 0.7597): 801.7 ± 0.3 kg/m3
mass density ([2]; 318.15 K, x1 = 0.8179): 814.1 ± 0.3 kg/m3
mass density ([2]; 318.15 K, x1 = 0.8565): 822.8 ± 0.3 kg/m3
mass density ([2]; 318.15 K, x1 = 0.8964): 832.4 ± 0.3 kg/m3
mass density ([2]; 318.15 K, x1 = 0.9373): 842.7 ± 0.4 kg/m3
mass density ([2]; 318.15 K, x1 = 1): 859.8 ± 0.2 kg/m3
mass density ([2]; 328.15 K, x1 = 0.056): 695.1 ± 0.3 kg/m3
mass density ([2]; 328.15 K, x1 = 0.1062): 699.8 ± 0.3 kg/m3
mass density ([2]; 328.15 K, x1 = 0.1918): 708.3 ± 0.3 kg/m3
mass density ([2]; 328.15 K, x1 = 0.2757): 717.5 ± 0.3 kg/m3
mass density ([2]; 328.15 K, x1 = 0.3519): 726.6 ± 0.3 kg/m3
mass density ([2]; 328.15 K, x1 = 0.429): 736.7 ± 0.3 kg/m3
mass density ([2]; 328.15 K, x1 = 0.4999): 746.7 ± 0.3 kg/m3
mass density ([2]; 328.15 K, x1 = 0.5709): 757.6 ± 0.3 kg/m3
mass density ([2]; 328.15 K, x1 = 0.6217): 766 ± 0.3 kg/m3
mass density ([2]; 328.15 K, x1 = 0.6881): 777.7 ± 0.3 kg/m3
mass density ([2]; 328.15 K, x1 = 0.7461): 788.7 ± 0.3 kg/m3
mass density ([2]; 328.15 K, x1 = 0.7857): 796.8 ± 0.3 kg/m3
mass density ([2]; 328.15 K, x1 = 0.8318): 806.6 ± 0.3 kg/m3
mass density ([2]; 328.15 K, x1 = 0.8801): 817.6 ± 0.3 kg/m3
mass density ([2]; 328.15 K, x1 = 0.8853): 818.8 ± 0.3 kg/m3
mass density ([2]; 328.15 K, x1 = 0.9429): 833 ± 0.4 kg/m3
mass density ([2]; 328.15 K, x1 = 1): 848.3 ± 0.2 kg/m3
